Converted amounts (≈) assume the structure as drawn.
How the values were obtained:
[1] = test system: Mycobacterium tuberculosis; experiment: Antitubercular activity against Mycobacterium tuberculosis H37Rv ATCC 27294 after 5 days by broth microdilution method; type: functional; conditions: H37Rv ATCC 27294, 120 h
[2] = Inhibition of Mycobacterium tuberculosis DprE1 using beta-D-ribofuranose as substrate after 7 mins by UV-Visible spectroscopy
[3] = Partition coefficient, log P of the compound in PBS at 10 mM at pH 7.4 after 5 hrs by shake flask method; type: physicochemical
[4] = Cmax in Sprague-Dawley rat at 10 mg/kg, iv; type: ADME, organism-based; parameters: dose 10 mg/kg, route intravenous; conditions: in vivo
[5] = Elimination half life in Sprague-Dawley rat at 10 mg/kg, iv; type: ADME, organism-based; parameters: dose 10 mg/kg, route intravenous; conditions: in vivo, read-out: beta t1/2 (converted)
[6] = AUC (0 to infinity) in Sprague-Dawley rat at 10 mg/kg, iv; type: ADME, organism-based; parameters: time infinity, dose 10 mg/kg, route intravenous; conditions: plasma
[7] = Cmax in Sprague-Dawley rat at 20 mg/kg, po; type: ADME, organism-based; parameters: dose 20 mg/kg, route oral; conditions: in vivo
[8] = Tmax in Sprague-Dawley rat at 20 mg/kg, po; type: ADME, organism-based; parameters: dose 20 mg/kg, route oral; conditions: in vivo
[9] = Elimination half life in Sprague-Dawley rat at 20 mg/kg, po; type: ADME, organism-based; parameters: dose 20 mg/kg, route oral; conditions: in vivo, read-out: beta t1/2 (converted)
[10] = AUC (0 to infinity) in Sprague-Dawley rat at 20 mg/kg, po; type: ADME, organism-based; parameters: time infinity, dose 20 mg/kg, route oral; conditions: plasma
[11] = Oral bioavailability in Sprague-Dawley rat at 20 mg/kg; type: ADME, organism-based; conditions: in vivo

CC1=C(C(=O)Nc2nc3ccccc3s2)C(c2ccccc2)NC(=S)N1 (stereo not given)
MIC [1]: 0.08 µM (≈ 0.0304 µg/mL)
IC50 [2]: 7.7 µM
logD at 5 h [3]: 2.03
Cmax [4]: 1800 ng/mL
half-life [5]: 2.6 h
AUC(0-inf) [6]: 1500 ng·h/mL
Cmax [7]: 590 ng/mL
Tmax [8]: 0.5 h
half-life [9]: 5.5 h
AUC(0-inf) [10]: 790 ng·h/mL
bioavailability [11]: 52.7%

CC1=C(C(=O)Nc2nc3ccccc3s2)C(c2ccccc2Cl)NC(=S)N1 (stereo not given)
MIC [1]: 0.32 µM (≈ 0.133 µg/mL)

CC1=C(C(=O)Nc2nc3ccccc3s2)C(c2ccc(Cl)cc2)NC(=S)N1 (stereo not given)
MIC [1]: 0.32 µM (≈ 0.133 µg/mL)

CC1=C(C(=O)Nc2nc3ccccc3s2)C(c2ccc(Cl)cc2Cl)NC(=S)N1 (stereo not given)
MIC [1]: 0.25 µM (≈ 0.112 µg/mL)

CC1=C(C(=O)Nc2nc3ccccc3s2)C(c2ccc(F)cc2)NC(=S)N1 (stereo not given)
MIC [1]: 0.09 µM (≈ 0.0359 µg/mL)
IC50 [2]: 9.2 µM
logD at 5 h [3]: 2.18
Cmax [4]: 1500 ng/mL
half-life [5]: 2.8 h
AUC(0-inf) [6]: 1530 ng·h/mL
Cmax [7]: 340 ng/mL
Tmax [8]: 0.6 h
half-life [9]: 5.8 h
AUC(0-inf) [10]: 810 ng·h/mL
bioavailability [11]: 51.9%

CC1=C(C(=O)Nc2nc3ccccc3s2)C(c2ccc(C(F)(F)F)cc2)NC(=S)N1 (stereo not given)
MIC [1]: 0.09 µM (≈ 0.0404 µg/mL)
IC50 [2]: 11.1 µM
logD at 5 h [3]: 2.92
Cmax [4]: 1730 ng/mL
half-life [5]: 2.6 h
AUC(0-inf) [6]: 1640 ng·h/mL
Cmax [7]: 490 ng/mL
Tmax [8]: 0.6 h
half-life [9]: 6 h
AUC(0-inf) [10]: 830 ng·h/mL
bioavailability [11]: 50.6%

CC1=C(C(=O)Nc2nc3ccccc3s2)C(c2ccc(Br)cc2)NC(=S)N1 (stereo not given)
MIC [1]: 0.4 µM (≈ 0.184 µg/mL)

CC1=C(C(=O)Nc2nc3ccccc3s2)C(c2ccccc2[N+](=O)[O-])NC(=S)N1 (stereo not given)
MIC [1]: 1.2 µM (≈ 0.511 µg/mL)

CC1=C(C(=O)Nc2nc3ccccc3s2)C(c2cccc([N+](=O)[O-])c2)NC(=S)N1 (stereo not given)
MIC [1]: 1.3 µM (≈ 0.553 µg/mL)

CC1=C(C(=O)Nc2nc3ccccc3s2)C(c2ccc([N+](=O)[O-])cc2)NC(=S)N1 (stereo not given)
MIC [1]: 1.2 µM (≈ 0.511 µg/mL)

COc1ccccc1C1NC(=S)NC(C)=C1C(=O)Nc1nc2ccccc2s1 (stereo not given)
MIC [1]: 0.5 µM (≈ 0.205 µg/mL)

COc1ccc(C2NC(=S)NC(C)=C2C(=O)Nc2nc3ccccc3s2)cc1 (stereo not given)
MIC [1]: 0.5 µM (≈ 0.205 µg/mL)

CC1=C(C(=O)Nc2nc3ccccc3s2)C(c2ccccc2O)NC(=S)N1 (stereo not given)
MIC [1]: 2.4 µM (≈ 0.952 µg/mL)

CC1=C(C(=O)Nc2nc3ccccc3s2)C(c2ccc(O)cc2)NC(=S)N1 (stereo not given)
MIC [1]: 2.4 µM (≈ 0.952 µg/mL)

CC1=C(C(=O)Nc2nc3ccccc3s2)C(c2ccc(N(C)C)cc2)NC(=S)N1 (stereo not given)
MIC [1]: 0.08 µM (≈ 0.0339 µg/mL)
IC50 [2]: 10.3 µM
logD at 5 h [3]: 2.22
Cmax [4]: 1620 ng/mL
half-life [5]: 2.5 h
AUC(0-inf) [6]: 1480 ng·h/mL
Cmax [7]: 410 ng/mL
Tmax [8]: 0.5 h
half-life [9]: 1.4 h
AUC(0-inf) [10]: 780 ng·h/mL
bioavailability [11]: 52.7%

COc1ccc(C2NC(=S)NC(C)=C2C(=O)Nc2nc3ccccc3s2)cc1O (stereo not given)
MIC [1]: 1.2 µM (≈ 0.512 µg/mL)

COc1cccc(C2NC(=S)NC(C)=C2C(=O)Nc2nc3ccccc3s2)c1O (stereo not given)
MIC [1]: 1.4 µM (≈ 0.597 µg/mL)

COc1cc(C2NC(=S)NC(C)=C2C(=O)Nc2nc3ccccc3s2)cc(OC)c1O (stereo not given)
MIC [1]: 1.2 µM (≈ 0.548 µg/mL)

COC(=O)c1ccc(C2NC(=S)NC(C)=C2C(=O)Nc2nc3ccccc3s2)cc1 (stereo not given)
MIC [1]: 3.1 µM (≈ 1.36 µg/mL)

NNC(=O)c1ccncc1 [ISONIAZID]
MIC [1]: 0.2 µM (≈ 0.0274 µg/mL)
